Test results from patent US12653899B2, “Multi-targeted, tunable, sustained delivery of payloads to charged avascular tissues” (Massachusetts Institute of Technology, priority 2019, dated 2026).
Entries after “also recorded” stand apart in the source; their conditions may differ.

What was measured:
[1] = test system: human ankle cartilage explants; experiment: Cumulative sGAG loss and final explant sGAG content (DMMB), human ankle cartilage dose response; type: cell-based; conditions: continuous free IGF-1; any of the three time points
Method: Since each fusion protein had one IGF-1 domain, equivalent doses (39.2 nM) of these were tested. In addition to this, 500 nM, 1 μM and 2 μM doses of fusion proteins were also tested. In all cases, only a single dose of the fusion proteins was added at the start of the experiment, and media changes were carried out without fusion proteins once every 2 to 3 days thereafter. In contrast, continuous doses of free IGF-1 were used for the positive control. An untreated control group was also included in the experiments. Experiments were terminated at 3-day, 7-day and 15-day time points. Outcome measures included the biosynthesis rate of sulfated glycosaminoglycans (sGAG), explant metabolic rate, sGAG loss to the culture medium and the explant sGAG content at the end of the experiment.
The metabolic rate of cartilage explants was measured using the Alamar Blue assay (ThermoFisher). […] At the end of the incubation period, the absorbance of the medium at 570 nm and 600 nm was measured using a microplate reader (Synergy H1 Hybrid Multi-Mode Microplate Reader, BioTek). These readings were used to calculate the percentage reduction of Alamar Blue, which is directly proportional to the explant metabolic rate. […] Following this, the weight-normalized readings for the treatment groups were normalized by the weight-normalized mean value for the untreated controls. […]

[2] = test system: human ankle cartilage explants treated with IL-1β; experiment: IL-1β cytokine challenge model, sGAG biosynthesis rate in human ankle cartilage explants; type: cell-based; conditions: continuous 39.2 nM IGF-1; 10 ng/ml mouse IL-1β; FIG. 20

IGF-1: free recombinant human IGF-1 (PeproTech), pro-anabolic growth factor used as the positive control
final explant GAG content or cumulative GAG loss percent compared to the untreated control [1]: did not have any change | rescue of the biosynthesis loss caused by IL-1 [2]: rescued; also recorded: could rescue
